According to the NIST ThermoML archive (doi:10.1016/j.fluid.2014.09.014):
Numbers after ± are expanded uncertainties.

Test: refractive index (other wavelength) (dimensionless); xn = mol fraction of the nth substance listed
Settings: 101 kPa, Liquid, Standard Abbe refractometry

CC(C)OC(C)C [diisopropyl ether] + CO
Settings	refractive index
313.15 K, Wavelength=644 nm, x2 = 0.9527	1.32574 ± 0.00032
313.15 K, Wavelength=644 nm, x2 = 0.9773	1.32248 ± 0.00032
313.15 K, Wavelength=644 nm, x2 = 0.989	1.3213 ± 0.00032
313.15 K, Wavelength=644 nm, x2 = 0.9964	1.32034 ± 0.00032
313.15 K, Wavelength=706.5 nm, x2 = 0	1.35401 ± 0.00043
313.15 K, Wavelength=706.5 nm, x2 = 0.0423	1.35395 ± 0.00043
313.15 K, Wavelength=706.5 nm, x2 = 0.0424	1.35398 ± 0.00043
313.15 K, Wavelength=706.5 nm, x2 = 0.082	1.35392 ± 0.00042
313.15 K, Wavelength=706.5 nm, x2 = 0.0822	1.35411 ± 0.00042
313.15 K, Wavelength=706.5 nm, x2 = 0.1171	1.35398 ± 0.00041
313.15 K, Wavelength=706.5 nm, x2 = 0.1271	1.35399 ± 0.00041
313.15 K, Wavelength=706.5 nm, x2 = 0.1827	1.35378 ± 0.0004
313.15 K, Wavelength=706.5 nm, x2 = 0.2162	1.35364 ± 0.0004
313.15 K, Wavelength=706.5 nm, x2 = 0.251	1.35322 ± 0.00039
313.15 K, Wavelength=706.5 nm, x2 = 0.3298	1.35329 ± 0.00038
313.15 K, Wavelength=706.5 nm, x2 = 0.3577	1.35251 ± 0.00038
313.15 K, Wavelength=706.5 nm, x2 = 0.4497	1.35124 ± 0.00037
313.15 K, Wavelength=706.5 nm, x2 = 0.4525	1.35165 ± 0.00037
313.15 K, Wavelength=706.5 nm, x2 = 0.522	1.34954 ± 0.00035
313.15 K, Wavelength=706.5 nm, x2 = 0.609	1.34648 ± 0.00035
313.15 K, Wavelength=706.5 nm, x2 = 0.6529	1.34501 ± 0.00034
313.15 K, Wavelength=706.5 nm, x2 = 0.7504	1.34121 ± 0.00033
313.15 K, Wavelength=706.5 nm, x2 = 0.804	1.33693 ± 0.00033
313.15 K, Wavelength=706.5 nm, x2 = 0.807	1.33702 ± 0.00033
313.15 K, Wavelength=706.5 nm, x2 = 0.8727	1.33354 ± 0.00032
313.15 K, Wavelength=706.5 nm, x2 = 0.9233	1.32582 ± 0.00032
313.15 K, Wavelength=706.5 nm, x2 = 0.9253	1.32745 ± 0.00032
313.15 K, Wavelength=706.5 nm, x2 = 0.9527	1.32454 ± 0.00032
313.15 K, Wavelength=706.5 nm, x2 = 0.9773	1.32131 ± 0.00032
313.15 K, Wavelength=706.5 nm, x2 = 0.989	1.32103 ± 0.00032
313.15 K, Wavelength=706.5 nm, x2 = 0.9964	1.31919 ± 0.00032
318.15 K, Wavelength=40.47 nm, x2 = 0	1.36447 ± 0.00044
318.15 K, Wavelength=40.47 nm, x2 = 0.0423	1.36444 ± 0.00043
318.15 K, Wavelength=40.47 nm, x2 = 0.0424	1.3644 ± 0.00043
318.15 K, Wavelength=40.47 nm, x2 = 0.082	1.36442 ± 0.00042
318.15 K, Wavelength=40.47 nm, x2 = 0.0822	1.36413 ± 0.00042
318.15 K, Wavelength=40.47 nm, x2 = 0.1171	1.36444 ± 0.00041
318.15 K, Wavelength=40.47 nm, x2 = 0.1271	1.36445 ± 0.00041
318.15 K, Wavelength=40.47 nm, x2 = 0.1827	1.36427 ± 0.0004
318.15 K, Wavelength=40.47 nm, x2 = 0.2162	1.36415 ± 0.0004
318.15 K, Wavelength=40.47 nm, x2 = 0.251	1.3636 ± 0.00039
318.15 K, Wavelength=40.47 nm, x2 = 0.3298	1.36408 ± 0.00038
318.15 K, Wavelength=40.47 nm, x2 = 0.3577	1.36296 ± 0.00038
318.15 K, Wavelength=40.47 nm, x2 = 0.4497	1.36174 ± 0.00038
318.15 K, Wavelength=40.47 nm, x2 = 0.4525	1.36248 ± 0.00038
318.15 K, Wavelength=40.47 nm, x2 = 0.522	1.35999 ± 0.00035
318.15 K, Wavelength=40.47 nm, x2 = 0.5543	1.35901 ± 0.00035
318.15 K, Wavelength=40.47 nm, x2 = 0.609	1.35666 ± 0.00034
318.15 K, Wavelength=40.47 nm, x2 = 0.6529	1.35514 ± 0.00034
318.15 K, Wavelength=40.47 nm, x2 = 0.7504	1.35095 ± 0.00034
318.15 K, Wavelength=40.47 nm, x2 = 0.804	1.34473 ± 0.00035
318.15 K, Wavelength=40.47 nm, x2 = 0.807	1.3465 ± 0.00035
318.15 K, Wavelength=40.47 nm, x2 = 0.8727	1.34338 ± 0.00033
318.15 K, Wavelength=40.47 nm, x2 = 0.9233	1.33515 ± 0.00033
318.15 K, Wavelength=40.47 nm, x2 = 0.9253	1.33682 ± 0.00033
318.15 K, Wavelength=40.47 nm, x2 = 0.9527	1.33369 ± 0.00032
318.15 K, Wavelength=40.47 nm, x2 = 0.9773	1.33062 ± 0.00032
318.15 K, Wavelength=40.47 nm, x2 = 0.989	1.32932 ± 0.00032
318.15 K, Wavelength=40.47 nm, x2 = 0.9964	1.32844 ± 0.00032
318.15 K, Wavelength=435.8 nm, x2 = 0	1.36157 ± 0.00044
318.15 K, Wavelength=435.8 nm, x2 = 0.0423	1.36155 ± 0.00043
318.15 K, Wavelength=435.8 nm, x2 = 0.0424	1.36152 ± 0.00043
318.15 K, Wavelength=435.8 nm, x2 = 0.082	1.36153 ± 0.00042
318.15 K, Wavelength=435.8 nm, x2 = 0.0822	1.36167 ± 0.00042
318.15 K, Wavelength=435.8 nm, x2 = 0.1171	1.36159 ± 0.00041
318.15 K, Wavelength=435.8 nm, x2 = 0.1271	1.36158 ± 0.00041
318.15 K, Wavelength=435.8 nm, x2 = 0.1827	1.3614 ± 0.0004
318.15 K, Wavelength=435.8 nm, x2 = 0.2162	1.36132 ± 0.0004
318.15 K, Wavelength=435.8 nm, x2 = 0.251	1.36074 ± 0.00039
318.15 K, Wavelength=435.8 nm, x2 = 0.3298	1.36122 ± 0.00038
318.15 K, Wavelength=435.8 nm, x2 = 0.3577	1.36012 ± 0.00038
318.15 K, Wavelength=435.8 nm, x2 = 0.4497	1.35893 ± 0.00038
318.15 K, Wavelength=435.8 nm, x2 = 0.4525	1.35967 ± 0.00038
318.15 K, Wavelength=435.8 nm, x2 = 0.522	1.3572 ± 0.00035
318.15 K, Wavelength=435.8 nm, x2 = 0.5543	1.35624 ± 0.00035
318.15 K, Wavelength=435.8 nm, x2 = 0.609	1.35398 ± 0.00034
318.15 K, Wavelength=435.8 nm, x2 = 0.6529	1.35244 ± 0.00034
318.15 K, Wavelength=435.8 nm, x2 = 0.7504	1.34832 ± 0.00034
318.15 K, Wavelength=435.8 nm, x2 = 0.804	1.34218 ± 0.00035
318.15 K, Wavelength=435.8 nm, x2 = 0.807	1.34393 ± 0.00035
318.15 K, Wavelength=435.8 nm, x2 = 0.8727	1.34082 ± 0.00033
318.15 K, Wavelength=435.8 nm, x2 = 0.9233	1.33279 ± 0.00033
318.15 K, Wavelength=435.8 nm, x2 = 0.9253	1.33442 ± 0.00032
318.15 K, Wavelength=435.8 nm, x2 = 0.9527	1.33136 ± 0.00032
318.15 K, Wavelength=435.8 nm, x2 = 0.9773	1.32834 ± 0.00032
318.15 K, Wavelength=435.8 nm, x2 = 0.989	1.32708 ± 0.00032
318.15 K, Wavelength=435.8 nm, x2 = 0.9964	1.32617 ± 0.00032
318.15 K, Wavelength=486.1 nm, x2 = 0	1.35832 ± 0.00044
318.15 K, Wavelength=486.1 nm, x2 = 0.0423	1.35829 ± 0.00043
318.15 K, Wavelength=486.1 nm, x2 = 0.0424	1.35828 ± 0.00043
318.15 K, Wavelength=486.1 nm, x2 = 0.082	1.35827 ± 0.00042
318.15 K, Wavelength=486.1 nm, x2 = 0.0822	1.35838 ± 0.00042
318.15 K, Wavelength=486.1 nm, x2 = 0.1171	1.35824 ± 0.00041
318.15 K, Wavelength=486.1 nm, x2 = 0.1271	1.35832 ± 0.00041
